Test results from patent US8415351B2 (priority 2007, dated 2013).
Like-named read-outs stand apart in the source and are kept apart here.

Tests used:
[1] = tested on: genotype 1b-Con1 subgenomic replicon cell line; test: microbe, parasite or virus in culture; type: cell-based, HCV; settings: read-out: EC50 1b
[2] = tested on: genotype 1a-H77 subgenomic replicon cell line; test: microbe, parasite or virus in culture; type: cell-based, HCV; settings: read-out: EC50 1a

Structure (SMILES)	EC50 ([1]; Hepatitis C virus) [nM]	EC50 ([2]; Hepatitis C virus) [nM]	EC50 ([1]; genotype 1b-Con1 replicon, luciferase reporter) [nM]	EC50 ([2]; genotype 1a-H77 replicon, luciferase reporter) [nM]
COCc1cc(NS(C)(=O)=O)ccc1/C=C/c1cc(-n2ccc(=O)[nH]c2=O)cc(C(C)(C)C)c1OC [IB-L1-1.13, (E)-N-(4-(3-tert-butyl-5-(2,4-dioxo-3,4-dihydropyrimidin-1(2H)-yl)-2-methoxystyryl)-3-(methoxymethyl)phenyl)methanesulfonamide]	< 10	10 to 100		
COc1c(/C=C\c2ccc(NS(C)(=O)=O)cc2)cc(-n2ccc(=O)[nH]c2=O)cc1C(C)(C)C [IB-L1-1.34, N-(4-{(Z)-2-[3-tert-Butyl-5-(2,4-dioxo-3,4-dihydro-2H-pyrimidin-1-yl)-2-methoxy-phenyl]-vinyl}-phenyl)-methanesulfonamide]	< 10	10 to 100		
COc1c(-c2ccc3c(c2)CC[C@@]3(F)CNS(C)(=O)=O)cc(-n2ccc(=O)[nH]c2=O)cc1C(C)(C)C [IB-L0-2.20, (S)—N-((5-(3-tert-butyl-5-(2,4-dioxo-3,4-dihydropyrimidin-1(2H)-yl)-2-methoxyphenyl)-1-fluoro-2,3-dihydro-1H-inden-1-yl)methyl)methanesulfonamide]	10 to 100	100 to 1000		
COc1c(NS(C)(=O)=O)cc(-n2ccc(=O)[nH]c2=O)cc1-c1ccc2cc(NS(C)(=O)=O)ccc2c1 [IB-L0-2.75, N-(5-(2,4-dioxo-3,4-dihydropyrimidin-1(2H)-yl)-2-methoxy-3-(6-(methylsulfonamido)naphthalen-2-yl)phenyl)methanesulfonamide]	> 1000	> 1000		
COc1c(I)cc(-n2ccc(=O)[nH]c2=O)cc1-c1ccc2cc(NS(C)(=O)=O)ccc2c1 [IB-L0-2.57, N-(6-(5-(2,4-dioxo-3,4-dihydropyrimidin-1(2H)-yl)-3-iodo-2-methoxyphenyl)naphthalen-2-yl)methanesulfonamide]	10 to 100	100 to 1000		
COc1c(-c2ccc3c(c2)CC=C3CN(C)S(C)(=O)=O)cc(-n2ccc(=O)[nH]c2=O)cc1C(C)(C)C [IB-L0-2.16, N-((6-(3-tert-butyl-5-(2,4-dioxo-3,4-dihydropyrimidin-1(2H)-yl)-2-methoxyphenyl)-1H-inden-3-yl)methyl)-N-methylmethanesulfonamide]	< 10	100 to 1000		
COc1c(/C=C/c2ccc(NS(C)(=O)=O)cc2)cc(-n2ccc(=O)[nH]c2=O)cc1-c1ccco1 [IB-L1-1.46, (E)-N-(4-(5-(2,4-dioxo-3,4-dihydropyrimidin-1(2H)-yl)-3-(furan-2-yl)-2-methoxystyryl)phenyl)methanesulfonamide]	< 10	100 to 1000		
CC(C)(C)c1cc(NC(=O)c2ccc(NS(C)(=O)=O)cc2)cc(N2CCC(=O)NC2=O)c1 [IA-L3-1.84, N-(3-tert-butyl-5-(2,4-dioxotetrahydropyrimidin-1(2H)-yl)phenyl)-4-(methylsulfonamido) benzamide]			> 1000	> 1000
COc1c(/C=C(\Cl)c2ccc(NS(C)(=O)=O)cc2)cc(N2CCC(=O)NC2=O)cc1C(C)(C)C [IA-L1-1.3, (Z)—N-(4-(2-(3-tert-butyl-5-(2,4-dioxotetrahydropyrimidin-1(2H)-yl)-2-methoxyphenyl)-1-chlorovinyl)phenyl)methanesulfonamide]	< 10	10 to 100		
COc1c(-c2ccc3nc(NS(C)(=O)=O)cnc3c2)cc(-n2ccc(=O)[nH]c2=O)cc1C(C)(C)C [IB-L0-2.26, N-(6-(3-tert-butyl-5-(2,4-dioxo-3,4-dihydropyrimidin-1(2H)-yl)-2-methoxyphenyl)quinoxalin-2-yl)methanesulfonamide]	100 to 1000	> 1000		
COc1c(-c2ccc3c(c2)/C(=N/NS(C)(=O)=O)CC3)cc(-n2ccc(=O)[nH]c2=O)cc1-c1cccs1 [IB-L0-2.51, (E)-N′-(6-(5-(2,4-dioxo-3,4-dihydropyrimidin-1(2H)-yl)-2-methoxy-3-(thiophen-2-yl)phenyl)-2,3-dihydro-1H-inden-1-ylidene)methanesulfonohydrazide]	< 10	10 to 100		
COc1ccc2cc(-c3cc(-n4ccc(=O)[nH]c4=O)cc(C(C)(C)C)c3OC)ccc2c1 [IB-L0-2.2, 1-(3-tert-butyl-4-methoxy-5-(6-methoxynaphthalen-2-yl)phenyl)pyrimidine-2,4(1H,3H)-dione]	> 1000	> 1000		
COc1c(/C=C/c2ccc(NS(C)(=O)=O)cc2C(=O)N2CCOCC2)cc(-n2ccc(=O)[nH]c2=O)cc1C(C)(C)C [IB-L1-1.23, (E)-N-(4-(3-tert-butyl-5-(2,4-dioxo-3,4-dihydropyrimidin-1(2H)-yl)-2-methoxystyryl)-3-(morpholine-4-carbonyl)phenyl)methanesulfonamide]	< 10	100 to 1000		
COc1c(I)cc(-n2ccc(=O)[nH]c2=O)cc1/C=C/c1ccc(NS(C)(=O)=O)cc1 [IB-L1-1.51, (E)-N-(4-(5-(2,4-dioxo-3,4-dihydropyrimidin-1(2H)-yl)-3-iodo-2-methoxystyryl)phenyl)methanesulfonamide]	10 to 100	> 1000		
COc1c(-c2ccc3cc(NS(C)(=O)=O)ccc3c2)cc(-n2ccc(=O)[nH]c2=O)cc1C(F)(F)F [IB-L0-2.56, N-(6-(5-(2,4-dioxo-3,4-dihydropyrimidin-1(2H)-yl)-2-methoxy-3-(trifluoromethyl)phenyl)naphthalen-2-yl)methanesulfonamide]	< 10	100 to 1000		
COc1c(-c2ccc3c(c2)CC=C3C(C)(C)NS(C)(=O)=O)cc(-n2ccc(=O)[nH]c2=O)cc1C(C)(C)C [IB-L0-2.41, N-(2-(6-(3-tert-butyl-5-(2,4-dioxo-3,4-dihydropyrimidin-1(2H)-yl)-2-methoxyphenyl)-1H-inden-3-yl)propan-2-yl)methanesulfonamide]	100 to 1000	100 to 1000		
COc1c(/C=C/c2ccc(NS(C)(=O)=O)cc2-c2ncc[nH]2)cc(-n2ccc(=O)[nH]c2=O)cc1C(C)(C)C [IB-L1-1.16, (E)-N-(4-(3-tert-butyl-5-(2,4-dioxo-3,4-dihydropyrimidin-1(2H)-yl)-2-methoxystyryl)-3-(1H-imidazol-2-yl)phenyl)methanesulfonamide]	10 to 100	100 to 1000		
COc1c(/C=C/c2ccc(NS(C)(=O)=O)cc2NC(=O)OC(C)(C)C)cc(-n2ccc(=O)[nH]c2=O)cc1C(C)(C)C [IB-L1-1.32, (E)-tert-butyl 2-(3-tert-butyl-5-(2,4-dioxo-3,4-dihydropyrimidin-1(2H)-yl)-2-methoxystyryl)-5-(methylsulfonamido)phenylcarbamate]	10 to 100	100 to 1000		
COc1c(/C=C/c2ccc(NS(C)(=O)=O)cc2CO)cc(-n2ccc(=O)[nH]c2=O)cc1C(C)(C)C [IB-L1-1.10, (E)-N-(4-(3-tert-butyl-5-(2,4-dioxo-3,4-dihydropyrimidin-1(2H)-yl)-2-methoxystyryl)-3-(hydroxymethyl)phenyl)methanesulfonamide]	< 10	< 10		
COc1c(/C=C/c2ccc(NS(C)(=O)=O)cc2C(N)=O)cc(-n2ccc(=O)[nH]c2=O)cc1C(C)(C)C [IB-L1-1.21, 2-{(E)-2-[3-tert-butyl-5-(2,4-dioxo-3,4-dihydro-2H-pyrimidin-1-yl)-2-methoxy-phenyl]-vinyl}-5-methanesulfonylamino-benzamide]	< 10	10 to 100		
COc1c(-c2ccc3c(c2)CNC3=O)cc(-n2ccc(=O)[nH]c2=O)cc1C(C)(C)C [IB-L0-2.30, 1-(3-tert-butyl-4-methoxy-5-(1-oxoisoindolin-5-yl)phenyl)-pyrimidine-2,4(1H,3H)-dione]	10 to 100	100 to 1000		
COc1c(-c2ccc3nc(N)sc3c2)cc(-n2ccc(=O)[nH]c2=O)cc1C(C)(C)C [IB-L0-2.27, 1-(3-(2-aminobenzo[d]thiazol-6-yl)-5-tert-butyl-4-methoxy-phenyl)pyrimidine-2,4(1H,3H)-dione]	10 to 100	100 to 1000		
COc1c(/C=C/c2ccc(NS(C)(=O)=O)cc2CN2CCCC2)cc(-n2ccc(=O)[nH]c2=O)cc1C(C)(C)C [IB-L1-1.33, N-(4-{(E)-2-[3-tert-Butyl-5-(2,4-dioxo-3,4-dihydro-2H-pyrimidin-1-yl)-2-methoxy-phenyl]-vinyl}-3-pyrrolidin-1-ylmethyl-phenyl)-methanesulfonamide]	10 to 100	100 to 1000		
CCC(C)(C)c1cc(-n2ccc(=O)[nH]c2=O)cc(-c2ccc3cc(NS(C)(=O)=O)ccc3c2)c1OC [IB-L0-2.52, N-(6-(5-(2,4-dioxo-3,4-dihydropyrimidin-1(2H)-yl)-2-methoxy-3-tert-pentylphenyl)naphthalen-2-yl)methanesulfonamide]	< 10	10 to 100		
COc1c(/C=C(\Cl)c2ccc([N+](=O)[O-])cc2)cc(N2CCC(=O)NC2=O)cc1C(C)(C)C [IA-L1-1.23, 1-{3-tert-butyl-5-[(Z)-2-chloro-2-(4-nitro-phenyl)-vinyl]-4-methoxy-phenyl}-dihydro-pyrimidine-2,4-dione]	> 1000	> 1000		
COc1c(/C=C/c2ccc(NS(C)(=O)=O)c(F)c2)cc(-n2ccc(=O)[nH]c2=O)cc1C(C)(C)C [IB-L1-1.5, (E)-N-(4-(3-tert-butyl-5-(2,4-dioxo-3,4-dihydropyrimidin-1(2H)-yl)-2-methoxystyryl)-2-fluorophenyl)methanesulfonamide]	< 10	10 to 100		
COc1c(/C=C/c2ccc(NS(C)(=O)=O)cc2)cc(-n2ccc(=O)[nH]c2=O)cc1S(C)(=O)=O [IB-L1-1.49, (E)-N-(4-(5-(2,4-dioxo-3,4-dihydropyrimidin-1(2H)-yl)-2-methoxy-3-(methylsulfonyl)styryl)phenyl)methanesulfonamide]	> 1000	> 1000		
CCOC(=O)c1cc(NS(C)(=O)=O)ccc1/C=C/c1cc(-n2ccc(=O)[nH]c2=O)cc(C(C)(C)C)c1OC [IB-L1-1.11, 2-{(E)-2-[3-tert-Butyl-5-(2,4-dioxo-3,4-dihydro-2H-pyrimidin-1-yl)-2-methoxy-phenyl]-vinyl}-5-methanesulfonylamino-benzoic acid ethyl ester]	< 10	10 to 100		
